As a reminder, the Ki is a measure of affinity in units of concentration, obtained from inhibition or displacement. The low end stands for higher affinity, the high end for lower affinity. As a reminder, the IC50 is the point on the concentration scale where inhibition reaches its midpoint. Low readings indicate inhibition by little substance, high ones a need for much substance. One may read the Km as the concentration of substrate that gives half-maximal velocity. Usually kcat stands for the number of substrate molecules converted per active site and unit of time at saturation.

Experimental findings from paper doi:10.1101/2020.04.05.026310v1 (biorxiv, 2020) are described below.

For data set [1], the target named is T1, mPDXK (mouse pyridoxal kinase) (Mus musculus, UniProt Q8K183).
T1 sequence (Q8K183 1-312): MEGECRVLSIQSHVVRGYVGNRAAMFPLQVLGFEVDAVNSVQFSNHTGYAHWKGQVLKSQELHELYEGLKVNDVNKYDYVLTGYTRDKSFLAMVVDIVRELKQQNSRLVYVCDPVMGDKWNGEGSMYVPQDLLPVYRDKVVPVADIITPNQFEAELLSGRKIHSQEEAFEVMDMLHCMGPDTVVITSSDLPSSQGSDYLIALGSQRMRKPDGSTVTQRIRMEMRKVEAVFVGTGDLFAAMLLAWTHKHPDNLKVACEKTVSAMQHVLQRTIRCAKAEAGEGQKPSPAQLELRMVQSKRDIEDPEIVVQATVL
Briefly: photometric PLP formation at […] nm, Dixon plot. The data set is classed as biochemical.

Data set [2] addresses T1, mPDXK (mouse pyridoxal kinase). Briefly: photometric PLP formation at […] nm, nonlinear variable-slope fit. The data set is classed as biochemical.
Substrate in the data set “purified protein”: Cc1ncc(CO)c(C=O)c1O
Briefly: purified protein. The data set is classed as biochemical, Mus musculus. To be noted: 1 mM ATP, 1 mM MgCl2, 100 mM KCl, 10 mM Hepes pH 7.3, 37 °C.

Molecule `C[C@@H]1CC[C@H]2[C@@H](C)C(=O)O[C@@H]3O[C@@]4(C)CC[C@@H]1[C@]32OO4` [artemisinin] registered a Ki in data set [1] of 120 ± 2.4 µM. The same molecule gave an IC50 in data set [2] of 229 ± 1.3 µM.

Molecule `C[C@H]1[C@H](OC(=O)CCC(=O)O)O[C@@H]2O[C@@]3(C)CC[C@H]4[C@H](C)CC[C@@H]1[C@@]24OO3` [artesunate] came in with an inhibition constant Ki in data set [1] of 1250 ± 4.7 µM. The molecule also registered a 50% inhibitory concentration (IC50) in data set [2] of 1445 ± 1.4 µM.

B1: mPDXK (mouse pyridoxal kinase) (Mus musculus) (protein)
chain: MEGECRVLSIQSHVVRGYVGNRAAMFPLQVLGFEVDAVNSVQFSNHTGYAHWKGQVLKSQELHELYEGLKVNDVNKYDYVLTGYTRDKSFLAMVVDIVRELKQQNSRLVYVCDPVMGDKWNGEGSMYVPQDLLPVYRDKVVPVADIITPNQFEAELLSGRKIHSQEEAFEVMDMLHCMGPDTVVITSSDLPSSQGSDYLIALGSQRMRKPDGSTVTQRIRMEMRKVEAVFVGTGDLFAAMLLAWTHKHPDNLKVACEKTVSAMQHVLQRTIRCAKAEAGEGQKPSPAQLELRMVQSKRDIEDPEIVVQATVL
In the case of B1, in “purified protein”, the Km turned out to be 26.0 ± 5.4 µM and the turnover number (kcat) is 0.1436 ± 0.003 s⁻¹.
